According to ChEMBL document CHEMBL1201862, “PubChem BioAssay data set” (2004):
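The compound was tested at five concentrations on cells cultured in 96-well plates, with a 48-hour exposure period. Abbreviation: GI50, concentration required for 50% inhibition of growth.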 Activity calls are given as the source filed them. Rule as the data show it: active = GI50 up to about 1.1 µM and inactive = higher.

Key:
Assay in all cases: growth of human tumour cells (NCI), 48 h
HCC 2998 = tested on: HCC 2998
ACHN = tested on: ACHN
SNB-19 = tested on: SNB-19
CCRF-CEM = tested on: CCRF-CEM
SNB-75 = tested on: SNB-75
U-251 = tested on: U-251
MDA-N = tested on: MDA-N
SN12C = tested on: SN12C
OVCAR-3 = tested on: OVCAR-3
MDA-MB-231 = tested on: MDA-MB-231
K562 = tested on: K562
COLO 205 = tested on: COLO 205
NCI/ADR-RES = tested on: NCI/ADR-RES
RPMI-8226 = tested on: RPMI-8226
NCI-H522 = tested on: NCI-H522
MOLT-4 = tested on: MOLT-4
NCI-H460 = tested on: NCI-H460
786-0 = tested on: 786-0
HOP-62 = tested on: HOP-62
PC-3 = tested on: PC-3
OVCAR-4 = tested on: OVCAR-4
UACC-257 = tested on: UACC-257
SF-268 = tested on: SF-268
SK-MEL-28 = tested on: SK-MEL-28
CAKI-1 = tested on: CAKI-1
SK-OV-3 = tested on: SK-OV-3
SF-295 = tested on: SF-295
LOX IMVI = tested on: LOX IMVI
EKVX = tested on: EKVX
UO-31 = tested on: UO-31
HOP-92 = tested on: HOP-92
A498 = tested on: A498
Malme-3M = tested on: Malme-3M
T47D = tested on: T47D
M14 = tested on: M14
RXF 393 = tested on: RXF 393
TK-10 = tested on: TK-10
HT-29 = tested on: HT-29
SK-MEL-5 = tested on: SK-MEL-5
BT-549 = tested on: BT-549
DU-145 = tested on: DU-145
HCT-15 = tested on: HCT-15
MCF7 = tested on: MCF7
MDA-MB-435 = tested on: MDA-MB-435
SK-MEL-2 = tested on: SK-MEL-2
IGROV-1 = tested on: IGROV-1
A549 = tested on: A549
NCI-H226 = tested on: NCI-H226
NCI-H23 = tested on: NCI-H23
Hs-578T = tested on: Hs-578T
KM12 = tested on: KM12
UACC-62 = tested on: UACC-62
OVCAR-5 = tested on: OVCAR-5
HL-60 = tested on: HL-60
HCT-116 = tested on: HCT-116
SW-620 = tested on: SW-620
OVCAR-8 = tested on: OVCAR-8

O=C(O)CCC(=O)Nc1ccc2ccccc2c1
GI50 (HCC 2998): > 100 µM (inactive)
GI50 (ACHN): > 100 µM (inactive)
GI50 (SNB-19): > 100 µM (inactive)
GI50 (CCRF-CEM): > 100 µM (inactive)
GI50 (SNB-75): > 100 µM (inactive)
GI50 (U-251): > 100 µM (inactive)
GI50 (MDA-N): > 100 µM (inactive)
GI50 (SN12C): > 100 µM (inactive)
GI50 (OVCAR-3): > 100 µM (inactive)
GI50 (MDA-MB-231): > 100 µM (inactive)
GI50 (K562): > 100 µM (inactive)
GI50 (COLO 205): > 100 µM (inactive)
GI50 (NCI/ADR-RES): > 100 µM (inactive)
GI50 (RPMI-8226): > 100 µM (inactive)
GI50 (NCI-H522): > 100 µM (inactive)
GI50 (MOLT-4): > 100 µM (inactive)
GI50 (NCI-H460): > 100 µM (inactive)
GI50 (786-0): > 100 µM (inactive)
GI50 (HOP-62): > 100 µM (inactive)
GI50 (PC-3): > 100 µM (inactive)
GI50 (OVCAR-4): > 100 µM (inactive)
GI50 (UACC-257): > 100 µM (inactive)
GI50 (SF-268): > 100 µM (inactive)
GI50 (SK-MEL-28): > 100 µM (inactive)
GI50 (CAKI-1): > 100 µM (inactive)
GI50 (SK-OV-3): > 100 µM (inactive)
GI50 (SF-295): > 100 µM (inactive)
GI50 (LOX IMVI): > 100 µM (inactive)
GI50 (EKVX): > 100 µM (inactive)
GI50 (UO-31): > 100 µM (inactive)
GI50 (HOP-92): > 100 µM (inactive)
GI50 (A498): > 100 µM (inactive)
GI50 (Malme-3M): > 100 µM (inactive)
GI50 (T47D): > 100 µM (inactive)
GI50 (M14): > 100 µM (inactive)
GI50 (RXF 393): > 100 µM (inactive)
GI50 (TK-10): > 100 µM (inactive)
GI50 (HT-29): > 100 µM (inactive)
GI50 (SK-MEL-5): > 100 µM (inactive)
GI50 (BT-549): > 100 µM (inactive)
GI50 (DU-145): > 100 µM (inactive)
GI50 (HCT-15): > 100 µM
GI50 (MCF7): > 100 µM (inactive)
GI50 (MDA-MB-435): > 100 µM (inactive)
GI50 (SK-MEL-2): > 100 µM (inactive)
GI50 (IGROV-1): > 100 µM (inactive)
GI50 (A549): > 100 µM (inactive)
GI50 (NCI-H226): > 100 µM (inactive)
GI50 (NCI-H23): > 100 µM (inactive)
GI50 (Hs-578T): > 100 µM (inactive)
GI50 (KM12): > 100 µM (inactive)
GI50 (UACC-62): > 100 µM (inactive)
GI50 (OVCAR-5): > 100 µM (inactive)
GI50 (HL-60): > 100 µM (inactive)
GI50 (HCT-116): > 100 µM (inactive)
GI50 (SW-620): > 100 µM (inactive)
GI50 (OVCAR-8): > 100 µM (inactive)
